# Measurements reported in patent US8952024B2, “Herbicidal pyrimidone derivatives” (E I du Pont de Nemours and Company, priority 2009, dated 2015).
# Read-outs that look alike come from different tables or passages of the source.
# Columns and labels:
# Assay in all cases: Test B pre-/postemergence plant response
# Assay type in all cases: in vivo
# [1] = tested on: goosegrass (Eleusine indica); settings: Preemergence, 125 g ai/ha; 0 to 100 scale
# In short: (§1)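 Response scores were assigned visually after 13 to 15 days in a greenhouse, comparing treated pots with controls on a 0–100 scale where 100 denotes complete control. Preemergence treatments went onto freshly seeded loam/sand soil; postemergence treatments onto plants 2 to 18 cm tall.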
# [2] = tested on: large crabgrass (Digitaria sanguinalis); settings: for pest or weed control at 16 g/ha: 16 g ai/ha; for pest or weed control at 16 g/ha / pest or weed control at 31 g/ha / pest or weed control at 62 g/ha: read-out: Plant response rating, Crabgrass, Large; for pest or weed control at 31 g/ha: 31 g ai/ha; for pest or weed control at 62 g/ha: 62 g ai/ha
# In short: as §1
# [3] = tested on: morningglory (Ipomoea coccinea); settings: for pest or weed control at 16 g/ha: 16 g ai/ha; for pest or weed control at 16 g/ha / pest or weed control at 31 g/ha / pest or weed control at 62 g/ha: read-out: Plant response rating, Morningglory; for pest or weed control at 31 g/ha: 31 g ai/ha; for pest or weed control at 62 g/ha: 62 g ai/ha
# In short: as §1
# [4] = tested on: velvetleaf (Abutilon theophrasti); settings: for pest or weed control at 31 g/ha: 31 g ai/ha; for pest or weed control at 31 g/ha / pest or weed control at 62 g/ha: read-out: Plant response rating, Velvetleaf; for pest or weed control at 62 g/ha: 62 g ai/ha
# In short: as §1
# [5] = tested on: wheat (Triticum aestivum); settings: for plant injury at 31 g/ha: 31 g ai/ha; for plant injury at 62 g/ha: 62 g ai/ha
# In short: as §1
# [6] = tested on: woolly cupgrass (Eriochloa villosa); settings: for pest or weed control at 16 g/ha: 16 g ai/ha; for pest or weed control at 16 g/ha / pest or weed control at 31 g/ha / pest or weed control at 62 g/ha: read-out: Plant response rating, Cupgrass, Woolly; for pest or weed control at 31 g/ha: 31 g ai/ha; for pest or weed control at 62 g/ha: 62 g ai/ha
# In short: as §1
# [7] = tested on: yellow nutsedge (Cyperus esculentus); settings: for pest or weed control at 16 g/ha: 16 g ai/ha; for pest or weed control at 16 g/ha / pest or weed control at 31 g/ha / pest or weed control at 62 g/ha: read-out: Plant response rating, Nutsedge, Yellow; for pest or weed control at 31 g/ha: 31 g ai/ha; for pest or weed control at 62 g/ha: 62 g ai/ha
# In short: as §1
# [8] = Digitaria sanguinalis, pre-emergence, Preemergence, scale 0 to 100 (0 no effect, 100 complete control)
# [9] = Preemergence, 125 g ai/ha, 0 to 100 scale
# [10] = Ipomoea, pre-emergence, Preemergence, scale 0 to 100 (0 no effect, 100 complete control)
# [11] = Abutilon theophrasti, pre-emergence, 360 h, Preemergence, scale 0 to 100 (0 no effect, 100 complete control)
# [12] = Triticum aestivum, pre-emergence, Preemergence, scale 0 to 100 (0 no effect, 100 complete control), read-out: Plant response rating, Wheat
# [13] = Eriochloa villosa, pre-emergence, Preemergence, scale 0 to 100 (0 no effect, 100 complete control)
# [14] = Cyperus, pre-emergence, Preemergence, scale 0 to 100 (0 no effect, 100 complete control)
structure (smiles),measurement,setting,value
"O=C1CCCC(O)=C1C(=O)c1cnc(-c2ccccc2)n(-c2ccccc2)c1=O [Compound 2, 5-[(2-hydroxy-6-oxo-1-cyclohexen-1-yl)carbonyl]-2,3-diphenyl-4(3H)-pyrimidinone]",Goosegrass plant response rating,[1],100
same,pest or weed control at 16 g/ha,"[2]; Digitaria sanguinalis, post-emergence, Postemergence, 0 to 100 scale",70%
same,pest or weed control at 31 g/ha,"[2]; Digitaria sanguinalis, post-emergence, Postemergence, scale 0 to 100 (0 no effect, 100 complete control)",80%
same,pest or weed control at 62 g/ha,"[2]; Digitaria sanguinalis, post-emergence, Postemergence, scale 0 (no effect) to 100 (complete control), 13 to 15 days",85%
same,pest or weed control at 125 g/ha,"[2]; Digitaria sanguinalis, post-emergence, Postemergence, 125 g ai/ha, visual rating after 13 to 15 days, scale 0 (no effect) to 100 (complete control)",90%
same,pest or weed control at 16 g/ha,[2]; [8],0%
same,pest or weed control at 31 g/ha,[2]; [8],15%
same,pest or weed control at 62 g/ha,"[2]; Digitaria sanguinalis, pre-emergence, Preemergence, scale 0 to 100, 0 no effect, 100 complete control",100%
same,"Crabgrass, Large plant response rating",[2]; [9],100
same,pest or weed control at 16 g/ha,"[3]; Ipomoea, post-emergence, Postemergence, 0 to 100 scale",55%
same,pest or weed control at 31 g/ha,"[3]; Ipomoea, post-emergence, Postemergence, scale 0 to 100 (0 no effect, 100 complete control)",70%
same,pest or weed control at 62 g/ha,"[3]; Ipomoea, post-emergence, Postemergence, scale 0 (no effect) to 100 (complete control), 13 to 15 days",80%
same,pest or weed control at 125 g/ha,"[3]; Ipomoea, post-emergence, Postemergence, 125 g ai/ha, visual rating after 13 to 15 days, scale 0 (no effect) to 100 (complete control)",95%
same,pest or weed control at 16 g/ha,[3]; [10],0%
same,pest or weed control at 31 g/ha,[3]; [10],0%
same,pest or weed control at 62 g/ha,"[3]; Ipomoea, pre-emergence, Preemergence, scale 0 to 100, 0 no effect, 100 complete control",20%
same,Morningglory plant response rating,[3]; [9],75
same,pest or weed control at 31 g/ha,"[4]; Abutilon theophrasti, post-emergence, 360 h, Postemergence, scale 0 to 100 (0 no effect, 100 complete control)",85%
same,pest or weed control at 62 g/ha,"[4]; Abutilon theophrasti, post-emergence, 360 h, Postemergence, scale 0 (no effect) to 100 (complete control), 13 to 15 days",85%
same,pest or weed control at 125 g/ha,"[4]; Abutilon theophrasti, post-emergence, 360 h, Postemergence, 125 g ai/ha, visual rating after 13 to 15 days, scale 0 (no effect) to 100 (complete control)",90%
same,pest or weed control at 31 g/ha,[4]; [11],75%
same,pest or weed control at 62 g/ha,[4]; [11],90%
same,Velvetleaf plant response rating,[4]; [9],100
same,Wheat plant response rating,[5]; [9],0
same,plant injury at 16 g/ha,"[5]; Triticum aestivum, post-emergence, 16 g ai/ha, Postemergence, 0 to 100 scale, read-out: Plant response rating, Wheat",0%
same,plant injury at 31 g/ha,"[5]; Triticum aestivum, post-emergence, Postemergence, scale 0 to 100 (0 no effect, 100 complete control), read-out: Plant response rating, Wheat",5%
same,plant injury at 62 g/ha,"[5]; Triticum aestivum, post-emergence, Postemergence, scale 0 (no effect) to 100 (complete control), 13 to 15 days, read-out: Plant response rating, Wheat",10%
same,plant injury at 125 g/ha,"[5]; Triticum aestivum, post-emergence, Postemergence, 125 g ai/ha, visual rating after 13 to 15 days, scale 0 (no effect) to 100 (complete control)",20%
same,plant injury at 31 g/ha,[5]; [12],0%
same,plant injury at 62 g/ha,[5]; [12],0%
same,pest or weed control at 16 g/ha,"[6]; Eriochloa villosa, post-emergence, Postemergence, 0 to 100 scale",75%
same,pest or weed control at 31 g/ha,"[6]; Eriochloa villosa, post-emergence, Postemergence, scale 0 to 100 (0 no effect, 100 complete control)",75%
same,pest or weed control at 62 g/ha,"[6]; Eriochloa villosa, post-emergence, Postemergence, scale 0 (no effect) to 100 (complete control), 13 to 15 days",80%
same,pest or weed control at 125 g/ha,"[6]; Eriochloa villosa, post-emergence, Postemergence, 125 g ai/ha, visual rating after 13 to 15 days, scale 0 (no effect) to 100 (complete control)",85%
same,pest or weed control at 16 g/ha,[6]; [13],0%
same,pest or weed control at 31 g/ha,[6]; [13],0%
same,pest or weed control at 62 g/ha,"[6]; Eriochloa villosa, pre-emergence, Preemergence, scale 0 to 100, 0 no effect, 100 complete control",15%
same,"Cupgrass, Woolly plant response rating",[6]; [9],20
same,pest or weed control at 16 g/ha,"[7]; Cyperus, post-emergence, Postemergence, 0 to 100 scale",40%
same,pest or weed control at 31 g/ha,"[7]; Cyperus, post-emergence, Postemergence, scale 0 to 100 (0 no effect, 100 complete control)",45%
same,pest or weed control at 62 g/ha,"[7]; Cyperus, post-emergence, Postemergence, scale 0 (no effect) to 100 (complete control), 13 to 15 days",60%
same,pest or weed control at 125 g/ha,"[7]; Cyperus, post-emergence, Postemergence, 125 g ai/ha, visual rating after 13 to 15 days, scale 0 (no effect) to 100 (complete control)",75%
same,pest or weed control at 16 g/ha,[7]; [14],0%
same,pest or weed control at 31 g/ha,[7]; [14],15%
same,pest or weed control at 62 g/ha,[7]; [14],40%
same,"Nutsedge, Yellow plant response rating",[7]; [9],70
